From patent publication US20210379085A1, “HALOGENATED SALICYLANILIDES FOR TREATING THE SYMPTOMS OF DERMATITIS” (Union Therapeutics A/S, priority 2018, published 2021)

Test: Systemic exposure to niclosamide (serum) after topical application in healthy volunteers
Format: in vivo
Conditions: human, after topical niclosamide formulations twice daily 7 days and final dose Day 8
Procedure: The skin biopsies were taken using sterile single use disposable biopsy punches (BP40F, Kai Europe GmbH, Solingen, Germany). For the 6 non-treated healthy volunteers biopsies were taken on Day 1. 10 mL of blood was collected at day 1 for the method validation group to determine niclosamide concentration in the blood.

concentration at 8 day: 0.24 ng/mL
Compound: O=C(Nc1ccc([N+](=O)[O-])cc1Cl)c1cc(Cl)ccc1O [Niclosamide, niclosamide]
